From US20240425523A1, “Compounds for the Degradation of EGFR Kinase” (Beigene Switzerland GMBH, priority 2023, published 2024) come the findings set out here.

Holding throughout (format): cell-based
For assay [1], the target named is T1, EGFR-L858R/C797S (H1975-clone #8 cells) (Homo sapiens, UniProt P00533, C797S/L858R).
T1 construct: expressed in transfected cells; host or cells: H1975 (endogenous EGFR knocked out, clone #8)
Put plainly: Cell degradation of EGFR, HTRF assay, H1975-clone#8 (L858R/C797S) cells. The following applies: 16 h treatment; for DC50: EGFR degradation. (In general: TR-FRET usually uses a lanthanide donor and a delayed reading to cut background.)

Assay [2] addresses T2, p-EGFR L858R (BaF3-L858R cells) (Homo sapiens, UniProt P00533, L858R).
T2 construct: host or cells: BaF3
Put plainly: Cell p-EGFR inhibition assay, HTRF, BaF3-L858R cells. The following applies: 16 h treatment; for Imax (%): maximum percentage of pEGFR inhibition; for IC50: pEGFR inhibition. In short, it runs like this: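 BaF3-L858R cells treated 16 h at 37 °C, 5% CO2 with compound from 10 uM top, 5-fold dilutions, 8 doses, in 0.1% DMSO medium. Lysates read overnight by HTRF p-EGFR antibodies; IC50 fitted to four-parameter curve against DMSO high control.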

Assay [3] concerns the target T3, EGFR L858R (BaF3-L858R cells) (Homo sapiens, UniProt P00533, L858R).
T3 construct: host or cells: BaF3
Put plainly: Cell degradation of EGFR, HTRF assay, BaF3-L858R cells. The settings on record: 16 h treatment; for DC50: EGFR degradation. In short, it runs like this: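 EGFR L858R levels measured by HTRF antibody pair in lysed BaF3-L858R cells after 16 h compound exposure (8-point 5-fold series from 10 uM final, 37° C). Degradation is relative to DMSO-only cells; DC50 fitted with Hill equation, Dmax taken as the largest percent loss.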

The target of assay [4] is p-EGFR Del19/C797S (H1975-clone #23 cells) (Homo sapiens, UniProt P00533). As to the kind of experiment: Cell p-EGFR inhibition assay, HTRF, H1975-clone#23 (DEL19/C797S) cells. The following applies: 16 h treatment; for Imax (%): maximum percentage of pEGFR inhibition; for IC50: pEGFR inhibition. Put shortly:
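Phospho-EGFR read by overnight HTRF on lysates, normalized to DMSO-treated high control; IC50, Hill slope and Imax fitted. Compounds were applied for 16 h (10 uM top, 5-fold steps, 8 doses) to an H1975 single clone carrying only exogenous Del19/C797S EGFR after sgRNA knockout of endogenous copies.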

Where [5] appears, read: maximum percentage of degradation.

For orientation: DC50 means the concentration giving 50% degradation. The low end stands for a more potent degrader, the high end for a less potent degrader. By Dmax is commonly meant the largest share of the target that was removed. Lower therefore signals shallow degradation. One may read the IC50 as the concentration needed to halve the response being measured. Low readings indicate greater potency, high ones weaker potency. With `Cc1cc2cc(n1)-c1cnn(C)c1OC[C@H]1CCC(C1)CN1/C(=N/C2=O)Nc2ccc(N3CCC(CN4CCC(Nc5cc(F)c([C@H]6CCC(=O)NC6=O)c(F)c5)CC4)CC3)cc21` [Example 131, (R)-3-(4-((1-((1-((7^1R,7^3S,E)-1^1,2^6-dimethyl-3-oxo-5^2,5^3-dihydro-1^1H,5^1H-9-oxa-4-aza-5(2,1)-benzo[d]imidazola-2(2,4)-pyridina-1(4,5)-pyrazola-7(1,3)-cyclopentanacyclononaphane-5^6-yl)piperidin-4-yl)methyl)piperidin-4-yl)amino)-2,6-difluorophenyl)piperidine-2,6-dione], the DC50 in assay [1] amounted to 0.867 nM; in assay [3], 4.84 nM. In addition, the values for the Dmax in assay [1] (setting [5]) and in assay [3] (setting [5]) were 72% and 69.1%, respectively. Besides, the “Imax (%)” value in assay [2] is recorded as 102.8%; in assay [4], 103.08%. For the same compound, the 50% inhibitory concentration (IC50) in assay [2] came to 6.4 nM; in assay [4] it was 0.796 nM.

For the compound `Cc1cc2cc(n1)-c1cnn(C)c1OC[C@H]1CCC(C1)CN1/C(=N/C2=O)Nc2ccc(N3CC4(CCN(C5CN(c6cc(F)c([C@H]7CCC(=O)NC7=O)c(F)c6)C5)CC4)C3)cc21` [Example 126, (R)-3-(4-(3-(2-((7^1R,7^3S,E)-1^1,2^6-dimethyl-3-oxo-5^2,5^3-dihydro-1^1H,5^1H-9-oxa-4-aza-5(2,1)-benzo[d]imidazola-2(2,4)-pyridina-1(4,5)-pyrazola-7(1,3)-cyclopentanacyclononaphane-5^6-yl)-2,7-diazaspiro[3.5]nonan-7-yl)azetidin-1-yl)-2,6-difluorophenyl)piperidine-2,6-dione], the DC50 in assay [1] came to 1.49 nM; in assay [3] it was 2.04 nM. Also, the maximal degradation (Dmax) is 73.7% in assay [1] (setting [5]) and 83.3% in assay [3] (setting [5]). The “Imax (%)” value in assay [2] amounted to 99.16%; in assay [4], 102.92%. For the same compound, the half-inhibitory concentration (IC50) in assay [2] came to 13.3 nM; in assay [4], 1.44 nM.

In the case of `COC[C@@H]1CN(c2ccc3c(c2)N2C[C@@H]4CCC(COc5c(c(C)nn5C)-c5cc(cc(C)n5)C(=O)/N=C/2N3)C4)CCN1C1CN(C2CCN(c3cc(F)c([C@H]4CCC(=O)NC4=O)c(F)c3)CC2)C1` [Example 121, (R)-3-(2,6-difluoro-4-(4-(3-((S)-2-(methoxymethyl)-4-((7R,7^3S,E)-1^1,1^3 2^6-trimethyl-3-oxo-5^2,5^3-dihydro-1^1H,5^1H-9-oxa-4-aza-5(2,1)-benzo[d]imidazola-2(2,4)-pyridina-1(4,5)-pyrazola-7(1,3)-cyclopentanacyclononaphane-5^6-yl)piperazin-1-yl)azetidin-1-yl)piperidin-1-yl)phenyl)piperidine-2,6-dione], the DC50 is 0.98 nM in assay [1] and 1.06 nM in assay [3]. Besides, the maximal degradation (Dmax) in assay [1] (setting [5]) was found to be 88.3%; in assay [3] (setting [5]), 82.2%. For the same compound, the “Imax (%)” value worked out at 96.6% in assay [2] and 100.8% in assay [4]. Further, the results for the IC50 in assay [2] and in assay [4] were 6 nM and 0.7 nM, respectively.

`Cc1cc2cc(n1)-c1c(C)nn(C)c1OC[C@H]1CCC(C1)CN1/C(=N/C2=O)Nc2ccc(N3CCN(C4CCN(c5cc(F)c([C@H]6CCC(=O)NC6=O)c(F)c5)CC4)CC3)cc21` [Example 74, (R)-3-(2,6-difluoro-4-(4-(4-((7^1R,7^3S,E)-1^1,1^3,2^6-trimethyl-3-oxo-5^2,5^3-dihydro-1^1H,5^1H-9-oxa-4-aza-5(2,1)-benzo[d]imidazola-2(2,4)-pyridina-1(4,5)-pyrazola-7(1,3)-cyclopentanacyclononaphane-5^6-yl)piperazin-1-yl)piperidin-1-yl)phenyl)piperidine-2,6-dione]: the results for the DC50 in assay [1] and in assay [3] were 1 nM and 0.99 nM, respectively. In addition, the Dmax in assay [1] (setting [5]) was found to be 86.2%; in assay [3] (setting [5]), 90.4%. Besides, the “Imax (%)” value in assay [2] is on record as 93.3%; in assay [4] it was 101.2%. The IC50 in assay [2] worked out at 3.2 nM; in assay [4] it was 1.7 nM.

Consider `COC[C@H]1CN(c2ccc3c(c2)N2CC4CC[C@H](COc5c(c(C)nn5C)-c5cc(cc(C)n5)C(=O)/N=C/2N3)C4)CCN1C1CCN(c2cc(F)c(C3CCC(=O)NC3=O)nc2C)CC1` (stereo partly drawn) [Example 90, 3-(3-fluoro-5-(4-((R)-2-(methoxymethyl)-4-((7^1R,7^3S,E)-1^1,1^3,2^6-trimethyl-3-oxo-5^2,5^3-dihydro-1^1H,5^1H-9-oxa-4-aza-5(2,1)-benzo[d]imidazola-2(2,4)-pyridina-1(4,5)-pyrazola-7(1,3)-cyclopentanacyclononaphane-5^6-yl)piperazin-1-yl)piperidin-1-yl)-6-methylpyridin-2-yl)piperidine-2,6-dione], for which the DC50 in assay [1] turned out to be 2.06 nM; in assay [3], 3.21 nM. In addition, the Dmax came to 87.4% in assay [1] (setting [5]) and 80.6% in assay [3] (setting [5]). Moreover, the “Imax (%)” value in assay [2] is given as 98.4%; in assay [4], 101.7%. Besides, the IC50 in assay [2] turned out to be 6.3 nM; in assay [4], 2.5 nM.

In the case of “3-((5-(4-((S)-2-(methoxymethyl)-4-((7^1R,7^3S,E)-1^1,1^3,2^6-trimethyl-3-oxo-5^2,5^3-dihydro-1^1H,5^1H-9-oxa-4-aza-5(2,1)-benzo[d]imidazola-2(2,4)-pyridina-1(4,5)-pyrazola-7(1,3)-cyclopentanacyclononaphane-5^6-yl)piperazin-1-yl)piperidin-1-yl)-4,6-dimethylpyridin-2-yl)oxy)piperidine-2,6-dione [Example 167]”, the DC50 in assay [1] worked out at 4.33 nM; in assay [3] it was 4.72 nM. The “Dmax (%)” value in assay [1] (setting [5]) was 88.56%; in assay [3] (setting [5]), 83.25%. Besides, the “Imax (%)” value in assay [2] is 98.09%; in assay [4], 102.84%. Further, the IC50 in assay [2] is 6.86 nM; in assay [4], 3.01 nM.

For `Cc1cc2cc(n1)-c1cnn(C)c1OC[C@H]1CC[C@H](C1)CN1/C(=N/C2=O)Nc2ccc(N3CCN(C4CCN(c5ccc(OC6CCC(=O)NC6=O)nc5C)CC4)CC3)cc21` (stereo partly drawn) [Example 137, 3-((5-(4-(4-((7^1R,7^3S,E)-1^1,2^6-dimethyl-3-oxo-5^2,5^3-dihydro-1^1H,5^1H-9-oxa-4-aza-5(2,1)-benzo[d]imidazola-2(2,4)-pyridina-1(4,5)-pyrazola-7(1,3)-cyclopentanacyclononaphane-5^6-yl)piperazin-1-yl)piperidin-1-yl)-6-methylpyridin-2-yl)oxy)piperidine-2,6-dione], the DC50 came to 3.35 nM in assay [1] and 2.37 nM in assay [3]. In addition, the Dmax in assay [1] (setting [5]) amounted to 78.2%; in assay [3] (setting [5]), 83.3%. The “Imax (%)” value came out at 96.47% in assay [2] and 98.8% in assay [4]. Also, the half-maximal inhibitory concentration (IC50) in assay [2] came out at 14.6 nM; in assay [4], 0.528 nM.

Take `Cc1cc2cc(n1)-c1c(C)nn(C)c1OC[C@H]1CCC(C1)CN1/C(=N/C2=O)Nc2ccc(N3CCN(C4CCN(c5cc(F)c([C@H]6CCC(=O)NC6=O)c(F)c5)CC4)[C@@H](C)C3)cc21` [Example 135, (R)-3-(2,6-difluoro-4-(4-((S)-2-methyl-4-((7^1R,7^3S,E)-1^1,1^3,2^6-trimethyl-3-oxo-5^2,5^3-dihydro-1^1H,5^1H-9-oxa-4-aza-5(2,1)-benzo[d]imidazola-2(2,4)-pyridina-1(4,5)-pyrazola-7(1,3)-cyclopentanacyclononaphane-5^6-yl)piperazin-1-yl)piperidin-1-yl)phenyl)piperidine-2,6-dione]: the DC50 in assay [1] stood at 1.91 nM; in assay [3], 3.08 nM. The maximal degradation (Dmax) in assay [1] (setting [5]) stood at 86.9%; in assay [3] (setting [5]), 89.1%. In addition, the entries for the “Imax (%)” value in assay [2] and in assay [4] were 104.33% and 104.78%, respectively. Further, the results for the IC50 in assay [2] and in assay [4] were 2.32 nM and 1.4 nM, respectively.

On to `Cc1cc2cc(n1)-c1c(C)nn(C)c1OC[C@H]1CC[C@H](C1)CN1/C(=N/C2=O)Nc2ccc(N3CCN(C4CCN(c5cc(F)c([C@H]6CCC(=O)NC6=O)c(F)c5)CC4)C[C@H]3CF)cc21` [Example 202, (R)-3-(2,6-difluoro-4-(4-((S)-3-(fluoromethyl)-4-((7R,7^3S,E)-1^1,1^3,2^6-trimethyl-3-oxo-5^2,5^3-dihydro-1^1H,5^1H-9-oxa-4-aza-5(2,1)-benzo[d]imidazola-2(2,4)-pyridina-1(4,5)-pyrazola-7(1,3)-cyclopentanacyclononaphane-5^6-yl)piperazin-1-yl)piperidin-1-yl)phenyl)piperidine-2,6-dione], for which the figures for the DC50 in assay [1] and in assay [3] were 4.8 nM and 1.06 nM, respectively. The results for the maximal degradation (Dmax) in assay [1] (setting [5]) and in assay [3] (setting [5]) were 87.9% and 92.5%, respectively. Further, the “Imax (%)” value is given as 92% in assay [2] and 100.52% in assay [4]. In addition, the IC50 in assay [2] came to 9.25 nM; in assay [4] it was 2.48 nM.
